This note sets out measurements from patent US11351260B2, “Photocleavable cobalt-nitrosyl complex and nitric oxide carrier containing the same” (DAEGU GYEONGBUK INSTITUTE OF SCIENCE AND TECHNOLOGY, priority 2019, dated 2022).

The subject of this assay is EGFR. Put plainly: EGFR single-particle tracking and diffusion analysis (dark-field, anti-EGFR-AuNP). Type of assay: cell-based. Particulars: ERK-KTR cells; NOExo treatment (complex of Example 1 + hν) or EGF treatment; untreated control 0.071. The source says: To confirm whether the activation of ERK by NO generated from the complex of Example 1 was induced by other receptors or membrane features, thus perturbing other signaling pathways, such as the MAPK pathway activated by the […] of EGF receptors (EGFRs) or by nonspecific disturbances caused by the formation of cellular membranes like lipid rafts, individual EGFRs in live cells were tracked, and analyzed.
Time-lapse dark-field microscope images were taken every 20 ms for 10 s. Lateral diffusion motion of protein was analyzed by particle trajectories. TrackMate plugin on Image J was used for single-particle tracking and trajectory analysis. For each particle, mean square displacement (MSD) was calculated from the x, y position and time information obtained from trajectory analysis; MSD(t)=<(xi+n−xi)^2+(yi+n−yi)^2>. The MSD versus time intervals were plotted up to the time lag (t) equivalent to 1/10th of the trajectory duration, then fitted to a linear equation corresponding to the Brownian motion. Diffusion coefficient (D) was calculated from the slope of the first ten points of the MSD plot; MSD=4Dt.
For single-molecule tracking of EGFR, anti-EGFR (EGFR anti-bodies) was conjugated to gold nanoparticles (AuNPs, 50 nm in diameter) using the biotin-neutravidin interaction (FIG. 8A), achieving high specificity (FIG. 8B). […]

With “epidermal growth factor [EGF, reference compound]”, the “diffusion coefficient of EGFR (DEGFR)” value stood at 0.017 μm^2 s^−1.
